Read-outs that look alike come from different tables or passages of the source.
Tests used:
Assay in all cases: TGFα-shedding assay-based GPCR screening with chimeric Gα subunit proteins
Assay type in all cases: cell-based
[1] = molecular target: T1, 348 GPCRs (Homo sapiens, UniProt P28336); conditions: 10µM, Favipiravir 100μM
T1 construct: expressed in transfected cells; host or cells: HEK293A

[2] = molecular target: T2, 348 GPCRs (Homo sapiens, UniProt Q969V1); conditions: 10µM, Favipiravir 100μM
T2 construct: expressed in transfected cells; host or cells: HEK293A

[3] = molecular target: T3, 348 GPCRs (Homo sapiens, UniProt Q86SM8); conditions: 10µM, Favipiravir 100μM
T3 construct: expressed in transfected cells; host or cells: HEK293A

[4] = molecular target: T4, 348 GPCRs (Homo sapiens, UniProt P47898); conditions: 10µM, Favipiravir 100μM
T4 construct: expressed in transfected cells; host or cells: HEK293A

[5] = molecular target: T5, 348 GPCRs (Homo sapiens, UniProt Q13255); conditions: 10µM, Favipiravir 100μM
T5 construct: expressed in transfected cells; host or cells: HEK293A

[6] = molecular target: T6, 348 GPCRs (Homo sapiens, UniProt Q6W5P4); conditions: 10µM, Favipiravir 100μM
T6 construct: expressed in transfected cells; host or cells: HEK293A
T6 sequence (Q6W5P4 1-371): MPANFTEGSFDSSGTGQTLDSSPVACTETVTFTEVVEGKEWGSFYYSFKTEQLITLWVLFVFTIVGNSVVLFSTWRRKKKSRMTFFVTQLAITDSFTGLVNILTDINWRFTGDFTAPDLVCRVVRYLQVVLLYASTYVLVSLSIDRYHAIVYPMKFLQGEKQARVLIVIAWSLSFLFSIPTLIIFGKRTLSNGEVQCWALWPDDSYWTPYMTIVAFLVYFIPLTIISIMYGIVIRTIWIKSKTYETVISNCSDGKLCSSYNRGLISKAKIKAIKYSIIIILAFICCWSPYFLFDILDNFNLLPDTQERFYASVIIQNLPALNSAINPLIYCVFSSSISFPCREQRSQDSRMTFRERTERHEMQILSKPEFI

[7] = molecular target: T7, 348 GPCRs (Homo sapiens, UniProt Q96RJ0); conditions: 10µM, Favipiravir 100μM
T7 construct: expressed in transfected cells; host or cells: HEK293A
T7 sequence (Q96RJ0 1-339): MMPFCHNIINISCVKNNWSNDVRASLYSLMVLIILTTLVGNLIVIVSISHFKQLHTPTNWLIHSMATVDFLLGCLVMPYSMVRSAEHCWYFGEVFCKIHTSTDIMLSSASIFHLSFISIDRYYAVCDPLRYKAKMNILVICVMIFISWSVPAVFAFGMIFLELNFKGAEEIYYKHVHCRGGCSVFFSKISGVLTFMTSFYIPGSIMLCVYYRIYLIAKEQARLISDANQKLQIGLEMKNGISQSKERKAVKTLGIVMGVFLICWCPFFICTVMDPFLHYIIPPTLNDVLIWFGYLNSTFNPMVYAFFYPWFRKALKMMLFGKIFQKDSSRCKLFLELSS

[8] = molecular target: T8, 348 GPCRs (Homo sapiens, UniProt Q5T6X5); conditions: 10µM, Favipiravir 100μM
T8 construct: expressed in transfected cells; host or cells: HEK293A
T8 sequence (Q5T6X5 19-926): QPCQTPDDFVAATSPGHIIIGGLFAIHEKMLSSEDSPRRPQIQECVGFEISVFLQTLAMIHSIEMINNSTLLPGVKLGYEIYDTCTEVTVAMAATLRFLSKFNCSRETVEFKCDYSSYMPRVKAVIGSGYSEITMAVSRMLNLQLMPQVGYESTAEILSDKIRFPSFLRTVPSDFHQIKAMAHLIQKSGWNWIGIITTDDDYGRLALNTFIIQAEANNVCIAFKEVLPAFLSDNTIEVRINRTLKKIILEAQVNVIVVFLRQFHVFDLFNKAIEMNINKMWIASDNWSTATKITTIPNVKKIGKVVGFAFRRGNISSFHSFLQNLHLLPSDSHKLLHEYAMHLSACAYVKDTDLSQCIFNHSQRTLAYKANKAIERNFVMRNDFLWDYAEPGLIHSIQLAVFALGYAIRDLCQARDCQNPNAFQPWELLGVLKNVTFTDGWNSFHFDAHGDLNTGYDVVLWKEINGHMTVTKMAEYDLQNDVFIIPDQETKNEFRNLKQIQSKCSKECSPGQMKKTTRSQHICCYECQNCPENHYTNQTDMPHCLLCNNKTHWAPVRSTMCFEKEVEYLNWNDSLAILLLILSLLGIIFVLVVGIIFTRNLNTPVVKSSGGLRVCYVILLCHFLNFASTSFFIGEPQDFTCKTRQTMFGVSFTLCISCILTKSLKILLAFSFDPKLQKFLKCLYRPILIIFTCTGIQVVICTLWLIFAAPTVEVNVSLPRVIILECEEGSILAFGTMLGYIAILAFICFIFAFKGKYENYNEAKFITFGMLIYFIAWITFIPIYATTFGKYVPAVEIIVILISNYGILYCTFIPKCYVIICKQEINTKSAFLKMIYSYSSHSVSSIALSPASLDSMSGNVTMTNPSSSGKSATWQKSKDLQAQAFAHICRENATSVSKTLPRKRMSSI

[9] = molecular target: T9, 348 GPCRs (Homo sapiens, UniProt P30518)
T9 construct: expressed in transfected cells; host or cells: HEK293A

[10] = molecular target: T10, 348 GPCRs (Homo sapiens, UniProt Q8TDS5); conditions: 10µM, Favipiravir 100μM
T10 construct: expressed in transfected cells; host or cells: HEK293A

[11] = NMBR (neuromedin B receptor), read-out: % GPCR activation compared to TPA
[12] = MCHR2 (melanin concentrating hormone receptor 2), read-out: % GPCR activation compared to TPA
[13] = MRGE (MAS-related GPR, member E), read-out: % GPCR activation compared to TPA
[14] = MRGPRE (MAS-related GPR, member E), read-out: % GPCR activation compared to TPA
[15] = 5-HT5A (5-hydroxytryptamine receptor 5A), read-out: % GPCR activation compared to TPA
[16] = GRM1 (glutamate receptor, metabotropic 1), read-out: % GPCR activation compared to TPA
[17] = NPS (neuropeptide S receptor 1), read-out: % GPCR activation compared to TPA
[18] = TA1 (trace amine associated receptor 1), read-out: % GPCR activation compared to TPA
[19] = GPRC6A (G protein-coupled receptor, family C, group 6, member A), read-out: % GPCR activation compared to TPA
[20] = GPCR V2 (arginine vasopressin receptor 2), read-out: % GPCR activation compared to TPA
[21] = OXER1 (oxoeicosanoid receptor 1), read-out: % GPCR activation compared to TPA
[22] = read-out: % GPCR activation compared to TPA, NMBR (neuromedin B receptor)
[23] = read-out: % GPCR activation compared to TPA, MCHR2 (melanin concentrating hormone receptor 2)
[24] = read-out: % GPCR activation compared to TPA, MRGE (MAS-related GPR, member E)
[25] = read-out: % GPCR activation compared to TPA, MRGPRE (MAS-related GPR, member E)
[26] = read-out: % GPCR activation compared to TPA, 5-HT5A (5-hydroxytryptamine receptor 5A)
[27] = read-out: % GPCR activation compared to TPA, GRM1 (glutamate receptor, metabotropic 1)
[28] = read-out: % GPCR activation compared to TPA, NPS (neuropeptide S receptor 1)
[29] = read-out: % GPCR activation compared to TPA, TA1 (trace amine associated receptor 1)
[30] = read-out: % GPCR activation compared to TPA, GPRC6A (G protein-coupled receptor, family C, group 6, member A)
[31] = read-out: % GPCR activation compared to TPA, GPCR V2 (arginine vasopressin receptor 2)
[32] = read-out: % GPCR activation compared to TPA, OXER1 (oxoeicosanoid receptor 1)

T4 sequence (P47898 whole entry): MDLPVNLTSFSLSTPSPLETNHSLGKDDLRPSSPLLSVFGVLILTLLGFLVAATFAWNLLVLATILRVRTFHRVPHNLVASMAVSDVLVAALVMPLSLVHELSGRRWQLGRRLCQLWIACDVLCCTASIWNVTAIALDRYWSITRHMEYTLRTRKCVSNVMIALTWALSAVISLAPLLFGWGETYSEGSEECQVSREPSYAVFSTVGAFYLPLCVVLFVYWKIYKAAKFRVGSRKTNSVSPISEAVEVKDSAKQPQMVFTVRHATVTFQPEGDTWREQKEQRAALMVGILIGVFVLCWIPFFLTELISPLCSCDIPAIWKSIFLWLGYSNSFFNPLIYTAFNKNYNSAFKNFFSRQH
T9 sequence (P30518 whole entry): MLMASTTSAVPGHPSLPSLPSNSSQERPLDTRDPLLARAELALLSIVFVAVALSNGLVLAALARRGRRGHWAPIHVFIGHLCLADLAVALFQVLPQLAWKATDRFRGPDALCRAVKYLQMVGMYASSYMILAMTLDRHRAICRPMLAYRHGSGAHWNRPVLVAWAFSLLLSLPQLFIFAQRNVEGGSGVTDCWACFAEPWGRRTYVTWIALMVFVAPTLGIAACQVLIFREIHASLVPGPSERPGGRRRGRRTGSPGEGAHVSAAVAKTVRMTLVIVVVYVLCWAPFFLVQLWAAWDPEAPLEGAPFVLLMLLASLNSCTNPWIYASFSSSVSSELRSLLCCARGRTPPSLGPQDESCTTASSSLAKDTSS
T10 sequence (Q8TDS5 whole entry): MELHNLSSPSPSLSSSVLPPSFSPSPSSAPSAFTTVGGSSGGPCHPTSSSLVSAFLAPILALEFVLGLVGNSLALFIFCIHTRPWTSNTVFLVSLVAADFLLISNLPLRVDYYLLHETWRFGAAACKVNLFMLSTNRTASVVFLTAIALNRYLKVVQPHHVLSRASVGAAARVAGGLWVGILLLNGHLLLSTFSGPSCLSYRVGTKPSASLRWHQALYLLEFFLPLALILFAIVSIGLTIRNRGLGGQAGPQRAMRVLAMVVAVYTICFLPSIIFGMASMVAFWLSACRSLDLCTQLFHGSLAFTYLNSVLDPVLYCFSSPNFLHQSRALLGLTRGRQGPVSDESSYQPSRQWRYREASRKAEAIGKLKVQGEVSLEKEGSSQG
T5 sequence (Q13255 19-1194): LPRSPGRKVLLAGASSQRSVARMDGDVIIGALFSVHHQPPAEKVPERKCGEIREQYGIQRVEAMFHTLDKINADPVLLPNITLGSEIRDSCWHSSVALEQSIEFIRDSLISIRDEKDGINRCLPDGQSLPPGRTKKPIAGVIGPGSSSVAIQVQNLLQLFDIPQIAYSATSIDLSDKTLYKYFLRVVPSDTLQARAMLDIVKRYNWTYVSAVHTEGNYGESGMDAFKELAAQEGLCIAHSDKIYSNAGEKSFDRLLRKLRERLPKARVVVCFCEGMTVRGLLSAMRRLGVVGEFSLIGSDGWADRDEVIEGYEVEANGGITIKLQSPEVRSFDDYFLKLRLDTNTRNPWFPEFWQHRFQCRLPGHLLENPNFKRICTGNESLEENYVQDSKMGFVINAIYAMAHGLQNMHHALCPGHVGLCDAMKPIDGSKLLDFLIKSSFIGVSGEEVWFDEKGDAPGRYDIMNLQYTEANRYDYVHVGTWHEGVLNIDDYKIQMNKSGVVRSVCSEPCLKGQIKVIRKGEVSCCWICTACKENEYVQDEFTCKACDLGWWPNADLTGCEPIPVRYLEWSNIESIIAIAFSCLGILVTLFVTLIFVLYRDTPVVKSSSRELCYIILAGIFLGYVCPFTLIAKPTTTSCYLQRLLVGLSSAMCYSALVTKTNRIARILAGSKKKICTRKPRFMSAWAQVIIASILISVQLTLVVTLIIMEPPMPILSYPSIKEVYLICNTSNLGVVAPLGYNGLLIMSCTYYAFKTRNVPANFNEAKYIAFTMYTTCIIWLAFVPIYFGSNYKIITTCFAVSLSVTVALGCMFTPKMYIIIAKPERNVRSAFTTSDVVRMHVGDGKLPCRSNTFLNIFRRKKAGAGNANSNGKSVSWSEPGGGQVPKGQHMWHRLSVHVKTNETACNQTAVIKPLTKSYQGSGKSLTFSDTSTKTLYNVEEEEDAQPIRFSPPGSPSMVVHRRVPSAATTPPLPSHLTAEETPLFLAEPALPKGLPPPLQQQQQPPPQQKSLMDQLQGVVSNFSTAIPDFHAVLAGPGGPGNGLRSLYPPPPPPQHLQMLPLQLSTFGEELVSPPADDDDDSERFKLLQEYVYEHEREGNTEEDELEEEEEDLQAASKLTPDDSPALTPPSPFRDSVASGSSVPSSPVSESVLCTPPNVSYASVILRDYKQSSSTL
T3 sequence (Q86SM8 whole entry): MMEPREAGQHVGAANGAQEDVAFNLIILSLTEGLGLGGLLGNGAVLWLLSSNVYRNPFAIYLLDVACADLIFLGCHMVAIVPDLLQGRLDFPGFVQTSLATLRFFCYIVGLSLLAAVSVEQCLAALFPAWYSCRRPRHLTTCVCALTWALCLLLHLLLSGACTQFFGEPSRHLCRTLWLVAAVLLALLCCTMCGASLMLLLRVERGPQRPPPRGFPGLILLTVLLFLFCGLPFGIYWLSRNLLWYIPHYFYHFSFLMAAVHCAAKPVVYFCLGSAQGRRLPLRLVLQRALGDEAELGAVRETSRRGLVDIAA
T1 sequence (P28336 whole entry): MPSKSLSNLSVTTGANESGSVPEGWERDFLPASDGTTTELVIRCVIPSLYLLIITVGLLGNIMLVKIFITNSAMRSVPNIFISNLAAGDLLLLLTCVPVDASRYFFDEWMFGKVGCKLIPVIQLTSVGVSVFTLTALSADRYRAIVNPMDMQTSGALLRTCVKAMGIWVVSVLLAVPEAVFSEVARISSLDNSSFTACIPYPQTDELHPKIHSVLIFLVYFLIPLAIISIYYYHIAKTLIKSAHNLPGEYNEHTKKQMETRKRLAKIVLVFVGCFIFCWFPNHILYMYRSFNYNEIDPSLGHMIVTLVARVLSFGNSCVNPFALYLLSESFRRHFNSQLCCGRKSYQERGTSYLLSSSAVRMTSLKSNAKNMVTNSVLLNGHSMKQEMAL
T2 sequence (Q969V1 whole entry): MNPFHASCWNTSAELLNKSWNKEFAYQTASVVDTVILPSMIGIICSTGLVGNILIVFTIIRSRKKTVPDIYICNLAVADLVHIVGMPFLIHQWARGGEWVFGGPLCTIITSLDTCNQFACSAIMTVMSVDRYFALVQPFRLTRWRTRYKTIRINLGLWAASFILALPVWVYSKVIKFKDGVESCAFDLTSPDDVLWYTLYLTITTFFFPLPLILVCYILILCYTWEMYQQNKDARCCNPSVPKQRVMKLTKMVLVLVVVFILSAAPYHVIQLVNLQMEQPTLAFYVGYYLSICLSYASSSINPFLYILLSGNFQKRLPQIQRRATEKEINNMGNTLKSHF

SMILES | activation at 10 µM [1, 11] [%] | activation at 10 µM [2, 12] [%] | activation at 100 µM [3, 13] [%] | activation at 100 µM [3, 14] [%] | activation at 100 µM [4, 15] [%] | activation at 10 µM [5, 16] [%] | activation at 10 µM [6, 17] [%] | activation at 100 µM [7, 18] [%] | activation at 10 µM [8, 19] [%] | activation at 10 µM [9, 20] [%] | activation at 10 µM [10, 21] [%] | activation at 10 µM [1, 22] [%] | activation at 10 µM [2, 23] [%] | activation at 100 µM [3, 24] [%] | activation at 100 µM [3, 25] [%] | activation at 100 µM [4, 26] [%] | activation at 10 µM [5, 27] [%] | activation at 10 µM [6, 28] [%] | activation at 100 µM [7, 29] [%] | activation at 10 µM [8, 30] [%] | further results
CCC(CC)COC(=O)[C@H](C)N[P@](=O)(OC[C@H]1O[C@@](C#N)(c2ccc3c(N)ncnn23)[C@H](O)[C@@H]1O)Oc1ccccc1 [remdesivir] |  |  |  |  |  |  |  |  |  |  |  | 0.461 | -3.7 | -2.75 | -1.08 | -0.876 | -0.568 | -0.795 | -1.76 | -2.47 | activation at 10 µM [9, 31]: 1.36%; activation at 10 µM [10, 32]: 2.06%
CC(C)OC(=O)[C@H](C)N[P@](=O)(OC[C@H]1O[C@@H](n2ccc(=O)[nH]c2=O)[C@](C)(F)[C@@H]1O)Oc1ccccc1 [sofosbuvir] |  |  |  |  |  |  |  |  |  |  |  | -0.697 | -1.19 | -1.05 | 0.355 | -0.524 | 0.735 | 0.112 | -1.12 | 0.803 | activation at 10 µM [9, 31]: -0.417%; activation at 10 µM [10, 32]: -1.86%

More lines, main results first:

activation at 10 µM [1, 11] [%] | activation at 10 µM [2, 12] [%] | activation at 100 µM [3, 13] [%] | activation at 100 µM [3, 14] [%] | activation at 100 µM [4, 15] [%] | activation at 10 µM [5, 16] [%] | activation at 10 µM [6, 17] [%] | activation at 100 µM [7, 18] [%] | activation at 10 µM [8, 19] [%] | activation at 10 µM [9, 20] [%] | activation at 10 µM [10, 21] [%] | SMILES | activation at 10 µM [1, 22] [%] | activation at 10 µM [2, 23] [%] | activation at 100 µM [3, 24] [%] | activation at 100 µM [3, 25] [%] | activation at 100 µM [4, 26] [%] | activation at 10 µM [5, 27] [%] | activation at 10 µM [6, 28] [%] | activation at 100 µM [7, 29] [%] | activation at 10 µM [8, 30] [%] | further results
-1.1 | -0.458 | -0.92 | -0.879 | -3.98 | -0.549 | -1.43 | -1.3 | -1.11 | -0.765 | -0.233 | N#C[C@@]1(c2ccc3c(N)ncnn23)O[C@H](CO)[C@@H](O)[C@H]1O [GS441524] |  |  |  |  |  |  |  |  |  | 
-0.624 | -2.23 | -2.09 | -1.34 | -2.45 | -0.946 | -0.693 | -2.98 | -1.55 |  | 0.649 | NC(=O)c1nc(F)cnc1O [favipiravir, 6-fluoro-3-hydroxy-2-pyrazinecarboxamide] |  |  |  |  |  |  |  |  |  | activation at 100 µM ([9]; GPCR V2 (arginine vasopressin receptor 2), 100μM, read-out: % GPCR activation compared to TPA): 1.41%
0.279 | -3.92 | -1.17 | -1.32 | -1.01 | -0.761 | -0.116 | -2.64 | -1.51 | -0.988 | -0.119 | CC(C)C(=O)OC[C@H]1O[C@@H](n2ccc(NO)nc2=O)[C@H](O)[C@@H]1O [molnupiravir] |  |  |  |  |  |  |  |  |  | 
